Reference: patent US20100022457A1 (Bristol-Myers Squibb Company, priority 2006, published 2010)
Like-named read-outs stand apart in the source and are kept apart here. Where a SMILES comes first, the peptide text is derived from it. [ ]: non-standard residue; d: D form. Ala(6-(2-MePh)pyridin-3-yl) = Cc1ccccc1-c1ccc(C[C@H](N)C(=O)O)cn1; Bip(2'-Et-4'-OMe) = CCc1cc(OC)ccc1-c1ccc(C[C@H](N)C(=O)O)cc1; αMePhe(2-F) = C[C@](N)(Cc1ccccc1F)C(=O)O; Aib = CC(C)(N)C(=O)O

Columns and labels:
C57BL/6J-ob/ob mice = test: Intraperitoneal glucose tolerance test (ipGTT) in ob/ob mice after subcutaneous injection; assay type: in vivo, mouse
Procedure: Peptides were dissolved in an appropriate vehicle at a concentration in nmol/ml equivalent to the dose that was to be administered in nmol/kg so that each mouse would receive the same volume/weight of dosing solution. Male C57BL/6J-ob/ob mice (10 weeks old) were randomized into groups of 6 mice per group based on fed plasma glucose and body weight. After an overnight fast, mice were weighed and placed in the experimental lab. After 30 min in the environment, the mice were bled via tail tip at −30 min and immediately injected subcutaneously (sc) with vehicle or the peptide dissolved in vehicle (0.1 ml solution/100 g body weight). At time 0 the mice were bled and then injected intraperitoneally with 50% glucose (2 g/kg) to initiate the intraperitoneal glucose tolerance test (ipGTT). The mice were bled 30, 60, 120 and 180 min after the glucose injection. Blood samples were drawn into potassium EDTA, placed on ice during the study and subsequently centrifuged for 10 min at 3000 rpm at 4° C. Plasma samples were diluted 1-fold for glucose analysis in the Cobas System. Another 5 μl plasma sample was diluted 5-fold with 20 μl of Sample Diluent (Insulin ELISA assay kit, Crystal Chem Inc.) and stored at −20° C. for subsequent analysis using the Ultra Sensitive Mouse Insulin ELISA kit (Crystal Chem Inc.).

[1] = Dog pharmacokinetic study (intravenous and subcutaneous, 67 μg/kg); assay type: in vivo; conditions: for half-life: read-out: t1/2 (converted)
Procedure: The pharmacokinetic parameters of the compound of SEQ ID NO:9 were determined in male beagle dogs (n=4, 14±1 kg). Following an overnight fast, each animal received the compound of SEQ ID NO:9 either as an intravenous bolus via femoral vein (67 μg/kg) or by subcutaneous injection given at near the shoulder blades (67 μg/kg). Each animal received both intravenous and subcutaneous doses with a one-week washout between doses following a crossover design. […] Serial blood samples were collected in EDTA-containing microcentrifuge tubes at predose, 0.083, 0.25, 0.5, 0.75, 1, 2, 4, 6, 8, 24, and 30 hours post-dose after intravenous administration; at predose, 0.25, 0.5, 0.75, 1, 2, 4, 6, 8, 24, and 30 hours post-dose after subcutaneous administration. Approximately 0.3 mL of blood was collected at each time point. Blood samples were immediately centrifuged at 4° C. The obtained plasma was frozen with dry ice and stored at −20° C. Plasma drug levels were determined using the LC-MS/MS assay described above.
Plasma samples from in vivo dog study were prepared for analysis by precipitating plasma proteins with two volumes of acetonitrile containing an internal standard. The samples were vortex mixed and removed the precipitated proteins by centrifugation. The resulting supernatants were transferred to a 96-well plate and 10 μL were injected for analysis. Samples were prepared with the Packard Multiprobe II and Quadra 96 Liquid Handling System.
The HPLC system consisted of two Shimadzu LC10AD pumps (Columbia, Md.), a CTC PAL autosampler (Leap Technologies, Switzerland). The column used was a YMC Hydrosphere C18 (2.0×50 mm, 3 μm) (YMC, Inc., Milford, Mass.). The column temperature was maintained at 50° C. and the flow rate was 0.3 mL/minute. The mobile phase A consisted of 10 mM ammonium formate and 0.1% formic acid in water and mobile phase B consisted of 0.1% formic acid in acetonitrile. The initial mobile phase composition was 5% B, and remained at 5% B for one minute to equilibrate the column. The composition was ramped to 95% B over two minutes and held there for one additional minute. The mobile phase was then returned to initial conditions in one minute. Total analysis time was five minutes. A switching valve was used. The eluents between 0-1 minute were diverted to the waste.
The HPLC was interfaced to a Sciex API 4000 mass spectrometer, (Applied Biosystems, Foster City, Calif.) and was equipped with a TurboIonspray ionization source. Ultra high purity nitrogen was used as the nebulizing and turbo gas. The temperature of turbo gas was set at 300° C. and the interface heater was set at 60° C. Data acquisition utilized selected reaction monitoring (SRM). Ions representing the (M+2H)^2+ species for the compound of SEQ ID NO:9, and (M+2H)^2+ for BMS-501143 (IS) were selected in Q1 and were collisionally dissociated with high purity nitrogen at a pressure of 3.5×10^−3 torr to form specific product ions which were subsequently monitored by Q3.
The standard curve concentrations, ranging from 1 to 1000 nM and from 4 to 5000 nM, were used for the in vivo samples obtained from low and high doses, respectively. The curves were fitted with a quadratic regression weighted by reciprocal […]. Standards were analyzed in duplicate. Quality control (QC) samples, prepared in blank matrix at the same concentrations as the standard were also analyzed in each analytical set. For the compound of SEQ ID NO:9, the calculated concentrations of more than 80% of the QCs were within 20% of nominal concentration, indicating acceptable assay performance.
The compound of SEQ ID NO:9 plasma concentration vs. time data were analyzed by noncompartmental methods using the […]™ software program. The Cmax and Tmax values were recorded directly from experimental observations. The AUC0-n and AUCtot values were calculated using a combination of linear and log trapezoidal summations. […]

[2] = Exposure during ipGTT in ob/ob mice; assay type: in vivo, mouse; conditions: sc
[3] = male, beagle, plasma, 67 ug/kg, dog, intravenous 67 μg/kg, propylene glycol:phosphate buffer (50:50)
[4] = male, beagle, plasma, sc, 67 ug/kg, dog, subcutaneous 67 μg/kg, propylene glycol:phosphate buffer (50:50)

**Q.** For `CCc1cc(OC)ccc1-c1ccc(C[C@H](NC(=O)[C@H](CC(=O)O)NC(=O)[C@H](CO)NC(=O)[C@@H](NC(=O)[C@](C)(Cc2ccccc2F)NC(=O)[C@@H](NC(=O)CNC(=O)[C@H](CCC(=O)O)NC(=O)C(C)(C)NC(=O)[C@@H](N)Cc2c[nH]cn2)[C@@H](C)O)[C@@H](C)O)C(=O)N[C@@H](Cc2ccc(-c3ccccc3C)nc2)C(N)=O)cc1` [SEQ ID NO: 9] (H-H[Aib]EGT[αMePhe(2-F)]TSD[Bip(2'-Et-4'-OMe)][Ala(6-(2-MePh)pyridin-3-yl)]-NH2), which “Potency in ob/ob mice: % AUC Reduction in Plasma Glucose in an IP Glucose Tolerance Test after SC Injection of Compound” value (C57BL/6J-ob/ob mice; 10 nmol/kg sc, relative to vehicle-treated group) is on record?
**A.** −68% (p < 0.0001)

**Q.** What about the “maximum increase in postprandial insulin AUC” value (C57BL/6J-ob/ob mice; 30 nmol/kg sc, ipGTT ob/ob mice) of the same compound?
**A.** 187.7%

**Q.** What about the “plasma glucose AUC decrease” value (C57BL/6J-ob/ob mice; 100 nmol/kg sc, ipGTT ob/ob mice) of the same compound?
**A.** 85.8%

**Q.** And the “effect on postprandial plasma glucose” value (C57BL/6J-ob/ob mice; sc in ob/ob mice, between 0 and 180 or 210 minutes)?
**A.** statistically significant decrease

**Q.** What about the “Potency in ob/ob mice ED50” value (C57BL/6J-ob/ob mice; sc injection, plasma glucose AUC in ipGTT) of the same compound?
**A.** 5 nmol/kg

**Q.** And the “Exposure in dogs (sc@67 μg/kg)” value ([1]; Table I, vehicle 0.2 M Tris buffer (pH 8.0))?
**A.** 0.452 µM·h

**Q.** What about the “Exposure in dogs (sc@67 μg/kg)” value ([1]; Table II, vehicle propylene glycol/pH 7.4 phosphate buffer (1:1)) of the same compound?
**A.** 1.23 µM·h

**Q.** What about the “Vss as % of extracellular fluid” value ([1]; dog, extracellular fluid 0.14 L/kg) of the same compound?
**A.** 71 % of extracellular fluid

**Q.** And the “systemic clearance as % of liver blood flow” value ([1]; dog, liver blood flow 31 mL/min/kg)?
**A.** 3.2 % of liver blood flow

**Q.** And the “Vss as times of vascular fluid” value ([1]; dog, vascular fluid 0.05 L/kg)?
**A.** 2 times of vascular fluid

**Q.** And the AUC [1, 3]?
**A.** 1.27 ± 0.299 µM·h

**Q.** What about the MRT [1, 3] of the same compound?
**A.** 3 ± 1 h

**Q.** What about the clearance ([1]; male, beagle, plasma, 67 ug/kg, dog, intravenous 67 μg/kg, propylene glycol:phosphate buffer (50:50), read-out: CLp) of the same compound?
**A.** 0.6 ± 0.1 mL/min/kg

**Q.** What about the Vd ([1]; male, beagle, plasma, 67 ug/kg, dog, intravenous 67 μg/kg, propylene glycol:phosphate buffer (50:50), read-out: VSS) of the same compound?
**A.** 0.1 ± 0.03 L/kg

**Q.** And the half-life [1, 3]?
**A.** 5.1 ± 0.5 h

**Q.** What about the AUC [1, 4] of the same compound?
**A.** 1.22 ± 0.276 µM·h

**Q.** What about the MRT [1, 4] of the same compound?
**A.** 12.5 ± 2.4 h

**Q.** And the Tmax [1, 4]?
**A.** 5 ± 1 h

**Q.** And the half-life [1, 4]?
**A.** 6.9 ± 1.3 h

**Q.** What about the Cmax ([1]; male, beagle, plasma, sc, 67 ug/kg, dog, subcutaneous 67 μg/kg, text of b538, read-out: maximum plasma concentration (Cmax)) of the same compound?
**A.** 90 ± 29 nM

**Q.** What about the clearance ([1]; male, beagle, whole blood, 67 ug/kg, dog, intravenous 67 μg/kg, propylene glycol:phosphate buffer (50:50), read-out: CLB (systemic clearance)) of the same compound?
**A.** 0.9 ± 0.2 mL/min/kg

**Q.** What about the “Exposure/dose during ipGTT in ob/ob mice” value [2] of the same compound?
**A.** 18 nM*h/nmol/kg
